Results published in patent EP4737452A1, “NOVEL PYRIMIDINE DERIVATIVES” (Aigen Sciences Inc., priority 2023, dated 2025).
Where two headings read alike, the source gives them in different places.

How the values were obtained:
MDA-MB-436 cells = test: BRCA1 synthetic lethality assay, colony formation with crystal violet staining, BRCA1 mutant cells; format: cell-based; settings: cultured for 21 days
Description: (§1) In this experimental example, whether the compound according to the present invention had synthetic lethal efficacy with BRCA1 activity was tested by examining the colony formation of tumor cells. MDA-MB-436 cells (ATCC, #HTB-130), a triple-negative breast cancer cell line with reduced BRCA1 activity due to BRCA1 mutation, and MCF-10A cell line (ATCC, #CRL-10317), which has wild-type BRCA1/2 genes and is used as a model of normal breast cells, were cultured in their respective culture media (MDA-MB-436: L-15 +10 […] + 10% fetal bovine serum (FBS), MCF-10A: MEGM + 100 ng/mL cholera toxin), and then seeded in 6-well plates at a concentration of 10,000 cells per well for the MDA-MB-436 cells and 120 cells per well for the MCF-10A cell line. […] The crystal violet stained in the cells was extracted by treating the cells with 500 µL of 10% acetic acid for 20 minutes at room temperature for quantitative analysis. 150 µL of the extracted crystal violet was placed in two wells of a 96-well plate, and the absorbance was measured at 565 nm. The absorbance was quantified relative to the absorbance value of a blank sample containing only DMSO but not the compound of the present invention.

MCF-10A cell line = test: BRCA1 synthetic lethality assay, colony formation with crystal violet staining, BRCA1/2 wild-type cells; format: cell-based
Description: as §1

MDA-MB-436 = test: Cell survival analysis (CellTiter-Glo, 10 days culture); format: cell-based; settings: Homo sapiens, read-out: Cell growth IC50 grade
Description: In this experimental example, the cell growth inhibitory effect of compounds according to the present invention and positive control compounds in tumor cell lines was examined.
MDA-MB-436 (ATCC, #HTB-130) cell line was cultured in cell culture medium (Leibovitz's L-15 (GIBCO catalog no. 11415064) + 10 µg/mL insulin (Yeasen catalog no. 40112ES25) + 16 µg/mL glutathione (GIBCO catalog no. 25030-081) + 10% fetal bovine serum (FBS) (Excell Bio catalog no. FSP500)). 3,000 MDA-MB-436 cells were plated per well in a 96-well plate and cultured for 1 day at 37°C in 5% CO2. […] The cells were then cultured in a cell incubator for 10 days, and the cell culture medium containing the compound was replaced on the 5th day of culture. Cell survival rate was analyzed for luminescence using the Promega CellTiter-Glo Luminescent Cell Viability Assay Kit (Promega catalog number G7573), and the luminescence was measured using a PerkinElmer EnVision instrument. The percentage of cell growth inhibition rate was calculated from the measured relative luminescence unit (RLU) as follows. Inhibition rate = 1−((RLU compound−RLU blank)/(RLU control−RLU blank)) × 100 [formula]

USP1 enzyme = USP1 enzyme (Homo sapiens, UniProt O94782); test: Biochemical analysis of USP1 enzyme activity (ubiquitin-rhodamine 110 deubiquitination, fluorescence); settings: ubiquitin-rhodamine 110 substrate, 10 minutes pre-incubation, 30 minutes reaction at room temperature; read-out: Enzyme activity IC50 grade
Description: In this experimental example, the inhibitory effect of the compounds according to the present invention and the positive control compound on USP1 deubiquitinating activity was tested using a biochemical enzymatic assay. Ubiquitin-rhodamine 110 was used as a substrate for measuring deubiquitinating activity. This substrate compound is a substance in which rhodamine 110 is linked to the glycine residue at the C-terminus of ubiquitin by an amide bond. When this amide bond is cleaved by the deubiquitinating activity, a fluorescent signal is counted.
Subsequently, analytical buffer solution (50 mM hydroxyethylpiperazineethanesulfonic acid (HEPES) containing USP1 enzyme, 100 mM NaCl, 2 mM tris(2-carboxyethyl)phosphine (TCEP), and 100 µg/mL bovine serum albumin (BSA)) were added to each well of the plate and incubated at room temperature for 10 minutes. Subsequently, analytical y buffer solution containing ubiquitin-rhodamine 110 was added to each well and reacted at room temperature for 30 minutes.

[1] = 240 h, MDA-MB-436 cell line, cultured for 10 days, CellTiter-Glo

Sequence of USP1 enzyme (O94782 whole entry): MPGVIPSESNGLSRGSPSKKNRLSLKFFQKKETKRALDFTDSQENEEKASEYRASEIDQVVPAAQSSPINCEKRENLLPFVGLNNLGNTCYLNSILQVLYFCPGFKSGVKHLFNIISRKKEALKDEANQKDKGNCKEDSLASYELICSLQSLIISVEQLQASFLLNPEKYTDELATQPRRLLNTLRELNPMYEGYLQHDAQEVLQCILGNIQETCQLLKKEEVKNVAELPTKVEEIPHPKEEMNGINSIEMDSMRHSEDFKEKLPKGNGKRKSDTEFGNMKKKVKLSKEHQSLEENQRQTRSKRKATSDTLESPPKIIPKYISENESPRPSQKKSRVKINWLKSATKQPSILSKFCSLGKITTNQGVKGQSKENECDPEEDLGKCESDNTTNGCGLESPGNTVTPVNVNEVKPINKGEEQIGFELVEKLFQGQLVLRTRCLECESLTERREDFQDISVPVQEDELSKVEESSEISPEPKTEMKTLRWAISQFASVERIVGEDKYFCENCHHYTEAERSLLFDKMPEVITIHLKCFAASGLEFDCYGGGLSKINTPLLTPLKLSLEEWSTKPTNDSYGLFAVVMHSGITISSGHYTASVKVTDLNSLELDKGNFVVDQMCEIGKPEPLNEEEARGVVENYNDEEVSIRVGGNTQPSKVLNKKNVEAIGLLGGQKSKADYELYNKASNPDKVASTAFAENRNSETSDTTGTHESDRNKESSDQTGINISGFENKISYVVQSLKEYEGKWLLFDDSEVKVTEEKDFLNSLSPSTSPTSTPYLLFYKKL
Sequence of USP1 enzyme (Q8TAF3 whole entry partner): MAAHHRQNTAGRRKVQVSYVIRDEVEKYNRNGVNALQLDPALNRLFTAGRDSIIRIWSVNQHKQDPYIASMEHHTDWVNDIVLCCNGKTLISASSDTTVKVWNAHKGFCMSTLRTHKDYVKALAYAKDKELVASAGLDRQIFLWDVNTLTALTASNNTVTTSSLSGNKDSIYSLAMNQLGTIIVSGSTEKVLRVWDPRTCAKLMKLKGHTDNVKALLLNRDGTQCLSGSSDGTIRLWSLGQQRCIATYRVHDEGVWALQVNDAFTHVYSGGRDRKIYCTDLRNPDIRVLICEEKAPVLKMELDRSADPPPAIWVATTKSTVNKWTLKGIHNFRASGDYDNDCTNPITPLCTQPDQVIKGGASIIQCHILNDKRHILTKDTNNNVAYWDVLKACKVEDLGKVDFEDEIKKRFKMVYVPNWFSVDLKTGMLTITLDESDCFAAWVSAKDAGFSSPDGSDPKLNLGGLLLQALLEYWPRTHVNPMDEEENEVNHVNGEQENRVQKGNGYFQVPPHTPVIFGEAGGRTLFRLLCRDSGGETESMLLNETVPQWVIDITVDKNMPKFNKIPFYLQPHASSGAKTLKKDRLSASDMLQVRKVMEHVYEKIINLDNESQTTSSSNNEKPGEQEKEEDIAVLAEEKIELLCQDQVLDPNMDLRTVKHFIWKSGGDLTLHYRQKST

| SMILES | IC50 (MDA-MB-436; [1]) [nM] | IC50 (USP1 enzyme) [nM] | also measured |
| --- | --- | --- | --- |
| COc1cccc(C2CC2)c1-c1ncc(P(C)(C)=O)c(NCc2ccc(-c3nc(C(F)(F)F)cn3C)cc2)n1 [Example 1, (2-(2-cyclopropyl-6-methoxyphenyl)-4-((4-(1-methyl-4-(trifluoromethyl)-1H-imidazol-2-yl)benzyl)amino)pyrimidin-5-yl)dimethylphosphine oxide] | 100 to 500 | 50 to 100 | crystal violet extraction amount (MDA-MB-436 cells; MDA-MB-436 cells with reduced BRCA1 activity, absorbance at 565 nm relative to DMSO blank, Fig. 1 A): less than one-fifth of that of the DMSO blank; colony formation (MDA-MB-436 cells; MDA-MB-436 cells, compared with DMSO blank sample, Fig. 1 B): significantly reduced; crystal violet extraction amount (MCF-10A cell line; MCF-10A cells with wild-type BRCA1/2, cultured for 21 days, absorbance at 565 nm relative to DMSO blank, Fig. 1 A): no different from that of the DMSO blank; colony formation (MCF-10A cell line; MCF-10A cells, cultured for 21 days, compared with DMSO blank sample, Fig. 1 B): formed colonies at a normal level |
| COc1ncnc(C2CC2)c1-c1ncc(P(C)(C)=O)c(NCC23C4C5C2C2C3C4C52c2nc(C(F)(F)F)cn2C)n1 [Example 11, (4'-cyclopropyl-6'-methoxy-4-((((1s,2R,3s,4r,5S,6r,7R,8S)-4-(1-methyl-4-(trifluoromethyl)-1H-imidazol-2-yl)cuban-1-yl)methyl)amino)-[2,5'-bipyrimidine]-5-yl)dimethylphosphine oxide] | – | < 50 | IC50 (MDA-MB-436; MDA-MB-436, 240 h): < 100 nM |
| COc1ncnc(C2CC2)c1-c1ncc(P(C)(C)=O)c(NCc2ccc(-c3nc(C(F)(F)F)cn3C(C)C)cc2)n1 [Example 12, (4'-cyclopropyl-4-((4-(1-isopropyl-4-(trifluoromethyl)-1H-imidazol-2-yl)benzyl)amino)-6'-methoxy-[2,5'-bipyrimidine]-5-yl)dimethylphosphine oxide] | 100 to 500 | 50 to 100 | – |
| COc1ncnc(C2CC2)c1-c1ncc(P(C)(C)=O)c(NCc2ccc(-c3nc(C(F)(F)F)cn3C(C)C)c(F)c2)n1 [Example 13, (4'-cyclopropyl-4-((3-fluoro-4-(1-isopropyl-4-(trifluoromethyl)-1H-imidazol-2-yl)benzyl)amino)-6'-methoxy-[2,5'-bipyrimidine]-5-yl)dimethylphosphine oxide] | < 100 | < 50 | – |
| COc1ncnc(C2CC2)c1-c1ncc(P(C)(C)=O)c(NCc2ccc(-n3nc(C(F)(F)F)cc3C)c(F)c2)n1 [Example 14, (4'-cyclopropyl-4-((3-fluoro-4-(5-methyl-3-(trifluoromethyl)-1H-pyrazole-1-yl)benzyl)amino)-6'-methoxy-[2,5'-bipyrimidine]-5-yl)dimethylphosphine oxide] | < 100 | < 50 | – |
| COc1ncnc(C2CC2)c1-c1ncc(P(C)(C)=O)c(NCc2ccc(-n3nc(C(F)(F)F)cc3C(C)C)cc2)n1 [Example 15, (4'-cyclopropyl-4-((4-(5-isopropyl-3-(trifluoromethyl)-1H-pyrazole-1-yl)benzyl)amino)-6'-methoxy-[2,5'-bipyrimidine]-5-yl)dimethylphosphine oxide] | < 100 | < 50 | – |
| COc1ncnc(C2CC2)c1-c1ncc(P(C)(C)=O)c(NCc2ccc(-n3nc(C(F)(F)F)cc3C(C)C)c(F)c2)n1 [Example 16, (4'-cyclopropyl-4-((3-fluoro-4-(5-isopropyl-3-(trifluoromethyl)-1H-pyrazol-1-yl)benzyl)amino)-6'-methoxy-[2,5'-bipyrimidine]-5-yl)dimethylphosphine oxide] | < 100 | < 50 | – |
| COc1ncnc(C2CC2)c1-c1ncc(P(C)(C)=O)c(NCc2ccc(-n3nc(C(F)(F)F)cc3C3CC3)cc2)n1 [Example 17, (4'-cyclopropyl-4-((4-(5-cyclopropyl-3-(trifluoromethyl)-1H-pyrazole-1-yl)benzyl)amino)-6'-methoxy-[2,5'-bipyrimidine]-5-yl)dimethylphosphine oxide] | < 100 | < 50 | – |
| COc1ncnc(C2CC2)c1-c1ncc(P(C)(C)=O)c(NCc2ccc(-n3nc(C(F)(F)F)cc3C3CC3)c(F)c2)n1 [Example 18, (4'-cyclopropyl-4-((4-(5-cyclopropyl-3-(trifluoromethyl)-1H-pyrazole-1-yl)-3-fluorobenzyl)amino)-6'-methoxy[2,5'-bipyrimidine]-5-yl)dimethylphosphine oxide] | < 100 | < 50 | – |
